Data taken from patent US11370773B1, “Inhibiting human integrin (alpha-4) (beta-7)” (Morphic Therapeutic, Inc., priority 2019, dated 2022).

target: T1, α4β7 (Homo sapiens, UniProt P13612+P26010); assay: Cell adhesion assay, RPMI8866 cells adhering to MAdCAM coated plates; format: cell-based; conditions: RPMI8866 cells on recombinant human MAdCAM coated plates; read-out: CA Assay (Example 7) IC50
T1 construct: α4β7 expressing cells (RPMI-8866); endogenous in cells; host or cells: RPMI 8866
T1 sequence (P13612 34-1032): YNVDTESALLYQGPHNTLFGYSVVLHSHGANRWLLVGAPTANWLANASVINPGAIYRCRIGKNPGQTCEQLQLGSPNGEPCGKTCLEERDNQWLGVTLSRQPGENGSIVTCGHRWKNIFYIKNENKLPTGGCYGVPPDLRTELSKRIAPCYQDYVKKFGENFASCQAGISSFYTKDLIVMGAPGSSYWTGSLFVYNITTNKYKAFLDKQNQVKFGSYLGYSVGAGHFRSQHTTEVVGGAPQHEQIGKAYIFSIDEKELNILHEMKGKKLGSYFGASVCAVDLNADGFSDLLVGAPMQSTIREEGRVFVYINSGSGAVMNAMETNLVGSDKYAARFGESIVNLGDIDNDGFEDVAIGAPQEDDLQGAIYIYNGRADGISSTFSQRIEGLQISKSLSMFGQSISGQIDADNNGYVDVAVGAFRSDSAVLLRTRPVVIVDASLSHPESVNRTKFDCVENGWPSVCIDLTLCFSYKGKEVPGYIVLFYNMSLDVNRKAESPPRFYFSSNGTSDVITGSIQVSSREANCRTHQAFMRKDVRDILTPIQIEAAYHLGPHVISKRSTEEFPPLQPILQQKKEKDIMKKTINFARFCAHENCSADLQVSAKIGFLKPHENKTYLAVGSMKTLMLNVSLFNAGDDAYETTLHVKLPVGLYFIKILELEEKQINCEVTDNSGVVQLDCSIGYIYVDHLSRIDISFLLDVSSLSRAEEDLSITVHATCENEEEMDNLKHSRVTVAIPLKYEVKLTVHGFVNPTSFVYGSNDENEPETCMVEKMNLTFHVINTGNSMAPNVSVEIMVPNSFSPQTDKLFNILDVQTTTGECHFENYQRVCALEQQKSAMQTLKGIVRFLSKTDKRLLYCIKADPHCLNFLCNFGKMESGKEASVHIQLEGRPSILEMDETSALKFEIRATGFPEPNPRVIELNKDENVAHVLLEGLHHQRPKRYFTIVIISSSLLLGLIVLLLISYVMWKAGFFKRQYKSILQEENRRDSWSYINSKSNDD
T1 sequence (P26010 20-798): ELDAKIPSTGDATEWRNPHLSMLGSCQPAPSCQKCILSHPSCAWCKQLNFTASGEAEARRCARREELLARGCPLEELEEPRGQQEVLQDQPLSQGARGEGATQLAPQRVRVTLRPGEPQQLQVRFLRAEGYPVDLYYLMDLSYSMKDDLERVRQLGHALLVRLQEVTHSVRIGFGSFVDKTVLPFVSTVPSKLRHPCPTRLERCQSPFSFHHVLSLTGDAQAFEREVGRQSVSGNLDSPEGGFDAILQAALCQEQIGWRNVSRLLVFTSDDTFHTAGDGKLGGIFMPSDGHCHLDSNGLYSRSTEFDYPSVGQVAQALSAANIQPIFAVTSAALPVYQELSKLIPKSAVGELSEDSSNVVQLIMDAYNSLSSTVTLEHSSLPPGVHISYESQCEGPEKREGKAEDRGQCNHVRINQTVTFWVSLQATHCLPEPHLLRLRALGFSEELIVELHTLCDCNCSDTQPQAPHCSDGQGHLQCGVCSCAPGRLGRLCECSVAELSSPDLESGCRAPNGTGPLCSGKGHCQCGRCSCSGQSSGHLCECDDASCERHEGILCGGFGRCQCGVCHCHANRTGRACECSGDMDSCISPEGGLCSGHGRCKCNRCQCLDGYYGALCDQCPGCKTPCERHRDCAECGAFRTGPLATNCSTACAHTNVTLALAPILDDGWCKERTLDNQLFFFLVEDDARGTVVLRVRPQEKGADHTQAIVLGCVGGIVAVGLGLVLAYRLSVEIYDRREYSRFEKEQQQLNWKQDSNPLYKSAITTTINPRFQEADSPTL
Protocol: Three in vitro assays were used to examine the α4β7 mechanistic process used by cells: 1) ligand:receptor affinity, 2) the avidity of those interactions on a cell's surface, and 3) how those interactions fare under an imposing force. In Example 5, a Fluorescence Polarization (FP) assay is used to measure compound activity through binding competition with the fluorescein-labeled peptide. In Example 6, the potency of compounds against α4β7 is measured in the cell-based ligand binding assay (LBA), using RPMI 8866 cells incubated with the compound samples in competition with soluble MAdCAM-1 ligand. In Example 7, activity of compounds is evaluated in a cell adhesion assay that mechanistically tests what occurs in vivo when trafficking cells utilize α4β7 to adhere to MAdCAM-1 expressing HEVs of the gut during the extravasation process. In the cell adhesion assay of Example 7, a MAdCAM1-(Fc) is coated on plastic, and α4β7 expressing cells (RPMI-8866) are allowed to adhere to the coated surface in the presence of the test compounds. Next, the force of washing with buffer is applied to cells thereby testing the strength of that adhesion. Unattached cells are removed and the remaining adherent cells are quantified.
Example 7 describes a cell adhesion assay.
To each well of a 96 well plate, 100 ug of recombinant human MAdCAM in 100 ul PBS is added and incubated overnight at 4° C. After incubation MAdCAM is removed by aspiration and 200 ul of PBS+1% BSA is added to block the plate for 2 hours at 37° C. and 5% CO2. During this incubation dilution curves of compound are made in 100% DMSO in 96 well V bottom plates. 1.75 ul of diluted compounds are then transferred to a new 96 well U bottom plate containing 20 ul of assay media (phosphate free DMEM+25 mM HEPES+1% BSA). To this an additional 155 ul of assay media is added with mixing by pipetting up and down. This mixture is allowed to incubate for 15 minutes at 37° C. and 5% CO2. After incubation 175 ul of assay media containing 2e6/mL RPMI8866 cells is added to compound containing wells without mixing and plate is allowed to incubate for another 15 minutes at 37° C. and 5% CO2. During this incubation MAdCAM coated plates are removed from incubator and washed twice with 200 ul PBS+0.1% BSA. […] This plate is then incubated at 37° C. and 5% CO2 for 1 hour. After incubation plates are washed twice with 200 ul and once with 50 ul of phenol free RPMI+1% BSA. A final 50 ul of phenol free RPMI+1% BSA is added to wells after last wash. Next 50 ul of Promega cell titer glow is added to the wells. Plate is incubated on shaker for 2 minutes at 200 RPM followed by another 8 minutes off shaker before having the luminescence read on a Biotek Citation 5 plate reader. Raw data is converted to % inhibition compared to bottom of curve and analyzed using a 4-parameter non linear curve in Prism to determine IC50 and IC90.

| Compound | IC50 |
| --- | --- |
| Cc1ccn([C@@H](NC(C)C)C(=O)N[C@@H](CC(=O)O)c2cncc(-c3c(C)cccc3C)c2)c(=O)c1 [Example C-7, reference compound] | 10 to 50 nM |
| Cc1ccc(F)c(C)c1-c1cc(C2CC2)c(F)c([C@H](CC(=O)O)NC(=O)[C@H](CC(C)C)n2cc(CCN3CCC3)c(C(F)(F)F)cc2=O)c1F [HH-P2, (3S)-3-(2-(5-(2-(azetidin-1-yl)ethyl)-2-oxo-4-(trifluoromethyl)pyridin-1(2H)-yl)-4-methylpentanamido)-3-(5-cyclopropyl-2,3′,4-trifluoro-2′,6′-dimethyl-[1,1′-biphenyl]-3-yl)propanoic Acid] | 5 to 10 nM |
| Cc1cc(C)c(-c2cc(C3CC3)c(F)c([C@H](CC(=O)O)NC(=O)[C@H](CC(C)C)n3cc(CCN4CCC4)c(C(F)(F)F)cc3=O)c2F)c(C)c1 [HM-P2, (3S)-3-(2-(5-(2-(azetidin-1-yl)ethyl)-2-oxo-4-(trifluoromethyl)pyridin-1(2H)-yl)-4-methylpentanamido)-3-(5-cyclopropyl-2,4-difluoro-2′,4′,6′-trimethylbiphenyl-3-yl)propanoic Acid] | < 5 nM |
| Cc1cc(C2CC2)cc(C)c1-c1cc(C(F)(F)F)c(F)c([C@H](CC(=O)O)NC(=O)[C@H](CC(C)C)n2cc(CCCN(C)C)c(C(F)(F)F)cc2=O)c1F [HU-P2, (3S)-3-(4′-cyclopropyl-2,4-difluoro-2′,6′-dimethyl-5-(trifluoromethyl)-[1,1′-biphenyl]-3-yl)-3-(2-(5-(3-(dimethylamino)propyl)-2-oxo-4-(trifluoromethyl)pyridin-1(2H)-yl)-4-methylpentanamido)propanoic Acid] | 5 to 10 nM |
| Cc1cc(F)cc(C)c1-c1cc(C(F)(F)F)c(F)c([C@H](CC(=O)O)NC(=O)[C@H](CC(C)C)n2cc(CCCN(C)C)c(C(F)(F)F)cc2=O)c1F [HW-P2, (3S)-3-(2-(5-(3-(dimethylamino)propyl)-2-oxo-4-(trifluoromethyl)pyridin-1(2H)-yl)-4-methylpentanamido)-3-(2,4,4′-trifluoro-2′,6′-dimethyl-5-(trifluoromethyl)-[1,1′-biphenyl]-3-yl)propanoic Acid] | < 5 nM |
| Cc1cc(C)c(-c2cc(C(F)(F)F)c(F)c([C@H](CC(=O)O)NC(=O)[C@H](CC(C)C)n3cc(CCCN(C)C)c(C(F)(F)F)cc3=O)c2F)c(C)c1 [HZ-P2, (3S)-3-(2,4-difluoro-2′,4′,6′-trimethyl-5-(trifluoromethyl)biphenyl-3-yl)-3-(2-(5-(3-(dimethylamino)propyl)-2-oxo-4-(trifluoromethyl)pyridin-1(2H)-yl)-4-methylpentanamido)propanoic Acid] | 5 to 10 nM |
| Cc1cc(-c2c(C)cc(F)cc2C)cc([C@H](CC(=O)O)NC(=O)[C@H](CC(C)C)n2cc(CCN(C)C)cc(C(F)F)c2=O)c1F [I-P2, (3S)-3-(4,4′-difluoro-2′,5,6′-trimethyl-[1,1′-biphenyl]-3-yl)-3-(2-(3-(difluoromethyl)-5-(2-(dimethylamino)ethyl)-2-oxopyridin-1(2H)-yl)-4-methylpentanamido)propanoic Acid] | < 5 nM |
| Cc1cc(C)c(-c2cc(C(F)(F)F)c(F)c([C@H](CC(=O)O)NC(=O)[C@H](CC(C)C)n3cc(CCN(C)C)c(C(F)(F)F)cc3=O)c2F)c(C)c1 [IF-P2, (3S)-3-(2,4-difluoro-2′,4′,6′-trimethyl-5-(trifluoromethyl)-[1,1′-biphenyl]-3-yl)-3-(2-(5-(2-(dimethylamino)ethyl)-2-oxo-4-(trifluoromethyl)pyridin-1(2H)-yl)-4-methylpentanamido)propanoic Acid] | < 5 nM |
| Cc1cc(C)c(-c2cc(C(F)(F)F)c(F)c([C@H](CC(=O)O)NC(=O)[C@H](CC(C)C)n3cc(CCN4CCC4)c(C(F)(F)F)cc3=O)c2F)c(C)c1 [IG-P2, (3S)-3-(2-(5-(2-(azetidin-1-yl)ethyl)-2-oxo-4-(trifluoromethyl)pyridin-1(2H)-yl)-4-methylpentanamido)-3-(2,4-difluoro-2′,4′,6′-trimethyl-5-(trifluoromethyl)biphenyl-3-yl)propanoic Acid] | < 5 nM |
| Cc1cc(C)c(-c2cc(C)c(F)c([C@H](CC(=O)O)NC(=O)[C@H](CC(C)C)n3cc(CCCN(C)C)c(C(F)(F)F)cc3=O)c2F)c(C)c1F [IW-P2, (3S)-3-(2-(5-(3-(dimethylamino)propyl)-2-oxo-4-(trifluoromethyl)pyridin-1(2H)-yl)-4-methylpentanamido)-3-(2,3′,4-trifluoro-2′,4′,5,6′-tetramethyl-[1,1′-biphenyl]-3-yl)propanoic Acid] | 5 to 10 nM |
| Cc1cc(F)c(C)c(C)c1-c1cc(C(F)(F)F)c(F)c([C@H](CC(=O)O)NC(=O)[C@H](CC(C)C)n2cc(CCN3CCC3)c(C(F)(F)F)cc2=O)c1F [KT-P2, (3S)-3-(2-(5-(2-(azetidin-1-yl)ethyl)-2-oxo-4-(trifluoromethyl)pyridin-1(2H)-yl)-4-methylpentanamido)-3-(2,4,4′-trifluoro-2′,3′,6′-trimethyl-5-(trifluoromethyl)-[1,1′-biphenyl]-3-yl)propanoic Acid] | < 5 nM |
